# Values of other authors, collected in patent US6468944B1, “Method of preparing glyphosate herbicide formulations” (priority 1991, dated 2002).
compound,measurement,value
"O=C(O)CNCP(=O)(O)O [Glyphosate, N-phosphonomethylglycine]",solubility in water,relatively insoluble in water
